Experiments:
Test in all cases: Bliss excess, mean over the matrix (fraction); higher = more synergy
IMR-5 (Neuroblastoma) = test system: IMR-5 (Neuroblastoma)
Summary of the method: (§1)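 After 24 hours at 37°C and 5% CO2 in 1536-well plates, cells in DMEM/F12 or RPMI plus 10% FBS received two-drug dose matrices for 72 hours. Viability came from CellTiter-Glo 2.0 luminescence and was scaled as inhibition, anchored at 0 by vehicle wells and at 1 by blank wells. Combination Emax is taken as the second-highest inhibition in the matrix, and Bliss excess as the observed combination effect less EA + EB − EA·EB, with EA and EB the single-agent effects.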

[1] = test system: LC4-1 (B-Lymphoblastic Leukemia)
Summary of the method: as §1

[2] = test system: SCC-9 (Oral Cavity Carcinoma)
Summary of the method: as §1

EW-13 (Ewing's Sarcoma) = test system: EW-13 (Ewing's Sarcoma)
Summary of the method: as §1

[3] = test system: DG-75 (Burkitt's Lymphoma)
Summary of the method: as §1

[4] = test system: NCI-H2405 (Lung Adenocarcinoma)
Summary of the method: as §1

BT-20 (Breast Carcinoma) = test system: BT-20 (Breast Carcinoma)
Summary of the method: as §1

[5] = test system: KLE (Endometrial Carcinoma)
Summary of the method: as §1

[6] = test system: OVISE (Ovarian Carcinoma)
Summary of the method: as §1

[7] = test system: OCUB-M (Breast Carcinoma)
Summary of the method: as §1

[8] = test system: H-EMC-SS (Chondrosarcoma)
Summary of the method: as §1

[9] = test system: SNU-C1 (Colorectal Carcinoma)
Summary of the method: as §1

[10] = test system: KU-19-19 (Bladder Carcinoma)
Summary of the method: as §1

[11] = test system: KINGS-1 (Low Grade Glioma)
Summary of the method: as §1

[12] = test system: EBC-1 (Squamous Cell Lung Carcinoma)
Summary of the method: as §1

U-87-MG (Glioblastoma) = test system: U-87-MG (Glioblastoma)
Summary of the method: as §1

[13] = test system: NCI-H322M (Lung Adenocarcinoma)
Summary of the method: as §1

[14] = test system: ASH-3 (Thyroid Gland Carcinoma)
Summary of the method: as §1

[15] = test system: LOU-NH91 (Squamous Cell Lung Carcinoma)
Summary of the method: as §1

[16] = test system: HuP-T3 (Pancreatic Carcinoma)
Summary of the method: as §1

Row | Structure (SMILES) | Bliss excess (IMR-5 (Neuroblastoma)) | Bliss excess [1] | Bliss excess [2] | Bliss excess (EW-13 (Ewing's Sarcoma)) | Bliss excess [3] | Bliss excess [4] | Bliss excess (BT-20 (Breast Carcinoma)) | Bliss excess [5] | Bliss excess [6] | Bliss excess [7] | Bliss excess [8] | Bliss excess [9] | Bliss excess [10] | Bliss excess [11] | Bliss excess [12] | Bliss excess (U-87-MG (Glioblastoma)) | Bliss excess [13] | Bliss excess [14] | Bliss excess [15] | Bliss excess [16]
1 | NC1(C(=O)N[C@@H](CCO)c2ccc(Cl)cc2)CCN(c2ncnc3[nH]ccc23)CC1 [Capivasertib] + C[C@@H]1COCCN1C2=NC(=NC(=C2)C3(CC3)[S@](=N)(=O)C)C4=C5C=CNC5=NC=C4 [AZD6738] (first compound max 10 µM, 7x7, partner max 10 µM) | 0.019 | 0.0099 | -0.0111 | 0.0091 | -0.0138 | -0.0513 | -0.0442 | -0.0692 | -0.0459 | -0.0241 | -0.0022 | -0.0534 | -0.0748 | -0.0197 | -0.0315 | 0.0169 | -0.0797 | -0.0468 | -0.0192 | -0.036
2 | COc1cccc(OCCCN)c1-c1cc(Nc2cnc(C#N)cn2)n[nH]1 [Prexasertib] + CCc1c2c(nc3ccc(O)cc13)-c1cc3c(c(=O)n1C2)COC(=O)[C@]3(O)CC [SN-38] (first compound max 1 µM, 7x7, partner max 0.3 µM) | -0.011 | -0.0868 | 0.0405 | -0.0697 | 0.0019 | -0.058 | 0.0673 | 0.0285 | -0.136 | 0.258 | -0.0116 | -0.0179 | 0.0024 | 0.0121 | -0.0694 | -0.092 | -0.0161 | 0.0624 | -0.0648 | 0.0335
3 | CC1(C)CCC(CN2CCN(c3ccc(C(=O)NS(=O)(=O)c4ccc(NCC5CCOCC5)c([N+](=O)[O-])c4)c(Oc4cnc5[nH]ccc5c4)c3)CC2)=C(c2ccc(Cl)cc2)C1 [Venetoclax] + Cc1cc2ncnn2cc1Nc1ncc2c(n1)n(C1CCOCC1)c(=O)n2C [AZD7648] (first compound max 1 µM, 7x7, partner max 10 µM) | -0.0038 | 0.0187 | -0.0211 | -0.0417 | -0.0157 | -0.0492 | -0.0229 | -0.0432 | -0.0464 | -0.0149 | -0.0179 | -0.0259 | -0.0571 | -0.0474 | 0.031 | -0.0832 | -0.0397 | -0.0732 | -0.0202 | -0.0331
4 | Cn1cnc2c(F)c(Nc3ccc(Br)cc3Cl)c(C(=O)NOCCO)cc21 [Selumetinib] + C=CCn1c(=O)c2cnc(Nc3ccc(N4CCN(C)CC4)cc3)nc2n1-c1cccc(C(C)(C)O)n1 [AZD1775] (first compound max 10 µM, partner max 1 µM) | 0.0121 | 0.0314 | 0.0789 | -0.0742 | -0.0637 | 0.0147 | -0.0224 | -0.0117 | -0.0436 | -0.0399 | -0.07 | 0.016 | -0.0308 | 0.0173 | 0.0508 | -0.0685 | -0.0097 | -0.0192 | -0.0144 | 0.0194
5 | CC1(C)CCC(CN2CCN(c3ccc(C(=O)NS(=O)(=O)c4ccc(NCC5CCOCC5)c([N+](=O)[O-])c4)c(Oc4cnc5[nH]ccc5c4)c3)CC2)=C(c2ccc(Cl)cc2)C1 [Venetoclax] + Cn1cnc2c(F)c(Nc3ccc(Br)cc3Cl)c(C(=O)NOCCO)cc21 [Selumetinib] (first compound max 1 µM, 7x7, partner max 3 µM) | 0.0009 | 0.0678 | -0.0242 | -0.0378 | -0.06 | -0.0618 | -0.0021 | -0.0704 | -0.0678 | -0.0137 | -0.0381 | -0.053 | 0.0087 | -0.0469 | -0.0542 | -0.0889 | -0.0124 | -0.0074 | -0.0291 | -0.0403
6 | COc1nnc2ccc(N3CCC(c4ccc(OCCN5CCN(C)C(=O)[C@H]5C)cc4)CC3)nn12 [AZD5153] + Cc1c2c(nn1C)CSCc1cc(n(C)n1)CSc1cc(c3ccccc3c1)OCCCc1c(C(=O)O)n(C)c3c-2c(Cl)ccc13 [AZD5991] (first compound max 1 µM, 7x7, partner max 1 µM) | -0.0178 | -0.0736 | -0.0322 | -0.0502 | -0.0432 | 0.01 | 0.0213 | -0.0228 | -0.039 | 0.0063 | -0.0212 | -0.0376 | -0.0634 | -0.0146 | -0.0528 | 0.0336 | -0.0517 | -0.114 | -0.0449 | 0.0051
7 | CC(=O)c1c(C)c2cnc(Nc3ccc(N4CCNCC4)cn3)nc2n(C2CCCC2)c1=O [Palbociclib] + CC1(C)CCC(CN2CCN(c3ccc(C(=O)NS(=O)(=O)c4ccc(NCC5CCOCC5)c([N+](=O)[O-])c4)c(Oc4cnc5[nH]ccc5c4)c3)CC2)=C(c2ccc(Cl)cc2)C1 [Venetoclax] (first compound max 10 µM, 7x7, partner max 1 µM) | 0.0953 | -0.0396 | -0.051 | -0.0311 | -0.0084 | -0.0521 | -0.0352 | -0.0355 | -0.0422 | -0.0276 | 0.0118 | -0.093 | -0.0135 | 0.0075 | 0.0208 | -0.054 | -0.0288 | -0.0086 | -0.0489 | -0.021
8 | COc1nnc2ccc(N3CCC(c4ccc(OCCN5CCN(C)C(=O)[C@H]5C)cc4)CC3)nn12 [AZD5153] + C[C@@H]1COCCN1C2=NC(=NC(=C2)C3(CC3)[S@](=N)(=O)C)C4=C5C=CNC5=NC=C4 [AZD6738] (first compound max 1 µM, 7x7, partner max 10 µM) | 0.0121 | -0.0721 | 0.0394 | 0.0682 | -0.0203 | 0.0638 | -0.0267 | -0.0287 | -0.0213 | 0.0415 | -0.0001 | -0.0404 | -0.0645 | -0.0124 | 0.0351 | 0.0506 | -0.102 | -0.025 | -0.0012 | -0.0119
9 | CS(=O)(=O)CCNCc1ccc(-c2ccc3ncnc(Nc4ccc(OCc5cccc(F)c5)c(Cl)c4)c3c2)o1 [Lapatinib] + C[C@@H](Oc1cc(-c2cnn(C3CCNCC3)c2)cnc1N)c1c(Cl)ccc(F)c1Cl [Crizotinib] (first compound max 10 µM, 7x7, partner max 10 µM) | -0.0113 | -0.0501 | 0.0015 | 0.0066 | 0.0033 | -0.0396 | -0.0146 | -0.0215 | 0 | -0.0465 | -0.0192 | -0.0359 | -0.034 | 0.0032 | 0.0978 | -0.0302 | 0.0188 | -0.0207 | 0.0284 | -0.0563
10 | COc1nnc2ccc(N3CCC(c4ccc(OCCN5CCN(C)C(=O)[C@H]5C)cc4)CC3)nn12 [AZD5153] + CC1(C)CCC(CN2CCN(c3ccc(C(=O)NS(=O)(=O)c4ccc(NCC5CCOCC5)c([N+](=O)[O-])c4)c(Oc4cnc5[nH]ccc5c4)c3)CC2)=C(c2ccc(Cl)cc2)C1 [Venetoclax] (first compound max 1 µM, 7x7, partner max 1 µM) | -0.0119 | -0.0482 | -0.0478 | 0.0173 | -0.063 | -0.0484 | -0.071 | -0.0384 | -0.013 | -0.0299 | -0.0508 | -0.061 | -0.0567 | -0.0288 | -0.0413 | -0.0343 | -0.076 | 0.0122 | -0.0758 | -0.102
11 | Cc1c2c(nn1C)CSCc1cc(n(C)n1)CSc1cc(c3ccccc3c1)OCCCc1c(C(=O)O)n(C)c3c-2c(Cl)ccc13 [AZD5991] + CN(C)CCCOc1ccc(-c2ccc3ncc4c(c3c2)n(C2CCOCC2)c(=O)n4C)cn1 [AZD0156] (first compound max 1 µM, 7x7, partner max 1 µM) | -0.0194 | -0.0177 | -0.0237 | -0.0024 | -0.0286 | -0.0075 | 0.0258 | -0.0504 | -0.0007 | 0.0178 | -0.0106 | -0.0652 | 0.0263 | 0.0128 | 0.0581 | -0.0477 | -0.0017 | -0.0253 | 0.01 | -0.0479
12 | CC(=O)c1c(C)c2cnc(Nc3ccc(N4CCNCC4)cn3)nc2n(C2CCCC2)c1=O [Palbociclib] + Cc1c2c(nn1C)CSCc1cc(n(C)n1)CSc1cc(c3ccccc3c1)OCCCc1c(C(=O)O)n(C)c3c-2c(Cl)ccc13 [AZD5991] (first compound max 10 µM, 7x7, partner max 1 µM) | 0.0155 | -0.0081 | -0.0368 | -0.0346 | 0.0332 | -0.0149 | -0.0834 | -0.082 | -0.0286 | -0.0004 | 0.0444 | -0.0562 | -0.0215 | 0.0346 | 0.0345 | -0.0527 | -0.0174 | -0.0324 | -0.0901 | -0.072
13 | Cn1cnc2c(F)c(Nc3ccc(Br)cc3Cl)c(C(=O)NOCCO)cc21 [Selumetinib] + C[C@@H]1COCCN1C2=NC(=NC(=C2)C3(CC3)[S@](=N)(=O)C)C4=C5C=CNC5=NC=C4 [AZD6738] (first compound max 10 µM, 7x7, partner max 10 µM) | 0.0151 | -0.0168 | -0.0302 | -0.0267 | -0.0328 | 0.0971 | 0.0733 | 0.01 | -0.0405 | -0.0604 | -0.0405 | -0.0453 | -0.0147 | 0.0148 | -0.0062 | 0.0075 | -0.0415 | 0.0892 | 0.0302 | 0.048
14 | CN(CCO)CC[C@H](CSc1ccccc1)Nc1ccc(S(=O)(=O)NC(=O)c2ccc(N3CCC([C@@H](O)c4ccccc4-c4ccc(Cl)cc4)CC3)cc2)cc1S(=O)(=O)C(F)(F)F [AZD4320] + C=CCn1c(=O)c2cnc(Nc3ccc(N4CCN(C)CC4)cc3)nc2n1-c1cccc(C(C)(C)O)n1 [AZD1775] (first compound max 1 µM, partner max 1 µM) | 0.118 | 0.0369 | -0.0054 | 0.0172 | -0.0232 | -0.0234 | 0.0557 | 0.0083 | 0.0598 | 0.075 | -0.0004 | -0.0588 | -0.018 | 0.0509 | 0.0187 | -0.0637 | -0.0521 | 0.0819 | 0.105 | -0.0081

Source: the supplement of paper PMC11061612
